Holding throughout (assay type): ADME, organism-based
The nature of series [1]: Plasma concentration in mouse xenografted with human SU-DHL10 cells at 1 mg/kg, po administered twice daily via gavage for 21 days measured at 2 hrs post last dose. For orientation: A xenograft is tissue or cells of one species grown in another, often human tumour cells in immunodeficient mice.
A short description of series [2]: Plasma concentration in mouse xenografted with human SU-DHL10 cells at 3 mg/kg, po administered twice daily via gavage for 21 days measured at 2 hrs post last dose.
Series [3] is described as follows: Plasma concentration in mouse xenografted with human SU-DHL10 cells at 10 mg/kg, po administered twice daily via gavage for 21 days measured at 2 hrs post last dose.
Series [4] can be described thus: Plasma concentration in mouse xenografted with human SU-DHL10 cells at 20 mg/kg, po administered twice daily via gavage for 21 days measured at 2 hrs post last dose.
Series [5] in a line: Plasma concentration in mouse xenografted with human SU-DHL10 cells at 10 mg/kg, po administered once daily via gavage for 21 days measured at 2 hrs post last dose.
A short description of series [6]: Plasma concentration in mouse xenografted with human SU-DHL10 cells at 1 mg/kg, po administered twice daily via gavage for 21 days measured at 12 hrs post last dose.
Series [7] is described as follows: Plasma concentration in mouse xenografted with human SU-DHL10 cells at 3 mg/kg, po administered twice daily via gavage for 21 days measured at 12 hrs post last dose.
The nature of series [8]: Plasma concentration in mouse xenografted with human SU-DHL10 cells at 10 mg/kg, po administered twice daily via gavage for 21 days measured at 12 hrs post last dose.
Series [9] is described as follows: Plasma concentration in mouse xenografted with human SU-DHL10 cells at 20 mg/kg, po administered twice daily via gavage for 21 days measured at 12 hrs post last dose.
A short description of series [10]: Plasma concentration in mouse xenografted with human SU-DHL10 cells at 10 mg/kg, po administered once daily via gavage for 21 days measured at 12 hrs post last dose.

Each structure is given as a SMILES string.

For `Cc1ccc2ncccc2c1-c1cc(-c2c(C)noc2C)cc2nc(C3CC3)[nH]c12`, the concentration at 2 h in series [1] stood at 556 nM; in series [2] it was 2620 nM; in [3] it was 4320 nM; in [4] it was 4780 nM; in [5], 5830 nM. Also, the concentration at 12 h in series [6] is 13 nM; in series [7], 18 nM; in series [8], 32 nM; in [9] it was 32 nM; in series [10] it was 207 nM.
